Source: patent US20060265137A1, “Methods to increase the capacity of high content cell-based screening assays” (Cellomics, Inc., priority 2001, published 2006)

Key:
p38 and c-jun = experiment: Primary high content screen, red channel: cytoplasm to nucleus translocation of p38 and c-jun (pooled reporter set); assay type: cell-based; conditions: Swiss 3T3 cells, 30 minutes treatment, ALEXA FLUOR 568 secondary antibodies, FIG. 6
Source text: (§1) 1. Cytoplasm to nuclear translocation: (A preferred embodiment of the method is described in detail in U.S. Pat. No. 5,989,835) A nuclear image is acquired and preferably thresholded to create a nuclear mask. A cytoplasmic image is created using either the nuclear image or the fluorescent signals from the fluorescent reporter molecules in the reporter set. Preferably, a cytoplasmic mask is created. Translocation of the fluorescent reporter molecules in an appropriate reporter set(s) between the nucleus and cytoplasm can then be determined by detecting fluorescent signals in the nuclear mask and cytoplasmic mask in the presence and absence of the one or more test compounds.
(§2) In this example, two reporter sets were used, each containing two fluorescent reporter molecules. The first reporter set consisted of ALEXA FLUOR® 488 conjugated secondary antibodies (Molecular Probes, Inc.), which both emit fluorescence detectable in the green channel. These secondary antibodies were used to bind to primary antibodies against extracellular (signal) regulated kinase (ERK) (Cell Signaling Technologies, Inc.) and Nf-kB (Zymed, Inc.). The second reporter set consisted of ALEXA FLUOR® 568 conjugated secondary antibodies (Molecular Probes, Inc.) which both emit fluorescence detectable in the red channel. These secondary antibodies were used to bind to primary antibodies against c-jun and p38.
(§3) In this experiment, the transcription factors under investigation translocate from the cytoplasm to the nucleus upon activation. Therefore, the fluorescent reporter molecules, which indirectly bind to the transcription factors, can be used to monitor the distribution of the transcription factors within the cell. However, each reporter reports on a different cellular event (i.e.: ERK translocation, Nf-kB translocation, c-jun translocation, and p38 translocation).
(§4) Swiss 3T3 cells in EMEM culture medium were plated in 96 well plates, at a plating density of 3,500 cells per well, and allowed to incubate overnight. […]

NFkB and ERK = experiment: Primary high content screen, green channel: cytoplasm to nucleus translocation of NFkB and ERK (pooled reporter set); assay type: cell-based; conditions: Swiss 3T3 cells, 30 minutes treatment, ALEXA FLUOR 488 secondary antibodies, versus negative controls, FIG. 5
Source text: as §1, §2, §3, §4

Row | Compound | translocation in the red channel (p38 and c-jun) (p38 and c-jun) | translocation in the green channel (NFkB and ERK; difference between cytoplasm and nuclear localization) (NFkB and ERK)
1 | CCCCCCCCCCCCCC(=O)O[C@@H]1[C@@H](C)[C@@]2(O)[C@@H](C=C(CO)C[C@]3(O)C(=O)C(C)=C[C@@H]23)[C@@H]2C(C)(C)[C@]12OC(C)=O [PMA] | increase in translocation for p38 and c-jun | both NFkB and ERK specific translocations can be observed
2 | COc1ccc(C[C@H]2NC[C@H](O)[C@H]2OC(C)=O)cc1 [anisomysin] | increase in translocation for p38 and c-jun | no effect on translocation in the green channel over negative controls
3 | TNF | not | both NFkB and ERK specific translocations can be observed
